Patent US20250109120A1, “INDOLINE DERIVATIVES FOR TREATMENT AND/OR PREVENTION OF TUMOR OR CELL PROLIFERATIVE AND FIBROSIS DISEASES” (NATIONAL TAIWAN UNIVERSITY, priority 2023, published 2025)

What was measured:
Type in all cases: cell-based, human
prostate cancer cells [1] = test: TGF-β1-induced EMT proteins and gene expression, western blot and real-time PCR
Protocol: Cells were exposed to compound k as indicated concentrations or senexin A (10 μM) in the presence or absence of TGF-β1 (10 ng/mL) for 24 h, the proteins and mRNA levels of E-cadherin, N-cadherin, Snail, vimentin, α-SMA were determined by western blot (A) or real-time PCR (B). Results are shown as the mean±SEM from at least three independent experiments (**p<0.01, ***p<0.001 vs. control group; #p<0.05, ##p<0.01, and ###p<0.001 vs. TGF-β1 treatment group).
Total RNA was isolated from cells using TRIzol reagent (Invitrogen). […] Quantitative PCR was performed using TaqMan One Step RT-PCR mastermix (ABI) in a total reaction volume of 20 μL per reaction, consisting of 10 μL of SYBR green PCR master mix (Applied Biosystems), 5 pmol of each forward/reverse primer, and 2 μL of cDNA. […] The threshold cycle (Ct) in the exponential phase of amplification was detected, the relative mRNA expression level was determined by calculating the ΔΔCt values, and the fold change was expressed as 2^−ΔΔCt. […]
The cells were incubated in lysis buffer for 10 min at 4° C., scraped off, incubated on ice for an additional 10 min and then centrifuged at 17,000 g for 30 min at 4° C. […] Bound antibodies will be measured using an ECL reagent and exposed to a photographic film. […]

prostate cancer cells [2] = test: Transwell migration assay; conditions: both prostate cancer cells
[3] = test system: STAT1-S727 phosphorylation (CDK8/19 kinase activity); test: STAT1-S727 phosphorylation western blot in DU145/PC-3 cells
Protocol: FIGS. 2A-2D show the evaluation of CDK8 inhibition by compound k. […] Cell viability was measured by MTT assay, and the 50% inhibitory concentration (IC50) values were calculated by a sigmoidal dose-response equation. […] Whole-cell lysates were subjected to western blotting with the indicated antibodies. The results are shown as the mean t SEM from at least three independent experiments (*p<0.05, **p<0.01, and ***p<0.001 vs. control group; #p<0.05 vs. relevant control).
(§1) The cells were incubated in lysis buffer for 10 min at 4° C., scraped off, incubated on ice for an additional 10 min and then centrifuged at 17,000 g for 30 min at 4° C. Protein samples were electrophoresed on SDS-PAGE gels, transferred to PVDF membranes and blocked with 5% fat-free milk in PBS for 30 min at room temperature. Immunoblotting was performed overnight with primary antibodies in PBS at 4° C., followed by incubation with HRP-conjugated secondary antibodies for 1 h at room temperature. Bound antibodies will be measured using an ECL reagent and exposed to a photographic film. In the immunoprecipitation assay, cell lysates were immunoprecipitated with 1 μg of antibody and A/G agarose beads overnight at 4° C. After washing the precipitated beads three times with 1 mL ice-cold cell lysis buffer, bound immune complexes were separated by 10% SDS-PAGE and analyzed with immunoblotting.

A549 cells [4] = test: Wound-healing migration assay; conditions: compounds 2 μM, senexin A 5 μM, pirfenidone 1 mM; TGF-β1 10 ng/mL; 24 or 48 h
Protocol: A549 cells were incubated in six-well plates until reaching 90% confluency, scratched with a pipette tip, and immediately photographed (0 h). Cells were incubated with or without compound k (2 μM), senexin A (5 μM), or pirfenidone (1 mM) for 1 h, then treated with TGF-β1 (10 ng/mL) and allowed to migrate into the wound area for 24 or 48 h, and photographed. Cell migration into the wound was quantified using ImageJ software; the solid line indicates time zero. Quantitative assessment of the mean number of cells in the denuded zone is expressed as the mean±SEM from three independent experiments. **p<0.01 compared to the control group; ##p<0.01 and ###p<0.001 compared to TGF-β1-treated group.
Cells were seeded in six-well plates and cultured to 90% confluency, at which time the cellular monolayer was wounded with a sterile 10-μL pipette tip and washed with culture medium to remove detached cells. Cells were incubated in the presence or absence of test compounds for 24 h and photographed. The wound closure percentages were subsequently determined using ImageJ software (National Institutes of Health, USA).

DU145 cells = test: LiCl-induced β-catenin signaling, western blot; conditions: LiCl 20 mM; senexin A 10 μM
Protocol: Inhibitory phosphorylation of GSK3β was evaluated through western blotting. […] Whole-cell lysates were subjected to western blotting with the indicated antibodies. FIGS. 11J-11K show the comparison of basal activities of the Akt/GSK3β axis between PC-3 and DU145 cells. […] The results are shown as the mean±SEM from at least three independent experiments (*p<0.05, **p<0.01, ***p<0.001 vs. control group; #p<0.05, ##p<0.01, and ###p<0.001 vs. relevant control).
as §1

A549 cells [5] = test: MTT cell viability assay; conditions: 12, 24 and 48 h, up to 10 μM
Protocol: FIGS. 4A-4B show the inhibition of epithelial-to-mesenchymal transition protein expressions by CDK8 inhibitors in human alveolar epithelial cells. […] Cell lysates were subjected to a Western blot analysis using the indicated antibodies. Results are shown as the mean t SEM from three independent experiments. *p<0.05, and ***p<0.001 compared to the control group; #p<0.05, ##p<0.01, and ###p<0.001 compared to the TGF-β1-treated group. […] Cell viabilities were determined by an MTT assay. Results are shown as the mean t SEM of three independent experiments.
Cell cytotoxicity was measured by a colorimetric MTT assay. […] After various treatments, 1 mg/mL of MTT was added, and the plates were incubated at 37° C. for an additional 2 h. Then cells were pelleted and lysed with 10% sodium dodecylsulfate (SDS) with 0.01 M HCl, and the absorbance at 570 nm was measured on a microplate reader.

Compound: CNC(=O)c1cc(Oc2ccc(NS(=O)(=O)c3ccc4c(c3)C(=C(C)C)C(=O)N4)c(F)c2)ccn1 [Compound k, 4-(3-Fluoro-4-((2-oxo-3-(propan-2-ylidene)indoline)-5-sulfonamido)phenoxy)-N-methylpicolinamide]
- TGF-β1 effects on E-cadherin, N-cadherin, Snail, vimentin (prostate cancer cells [1]; TGF-β1 10 ng/mL, 24 h): attenuated the effects of TGF-β1
- EMT protein inhibitory effects compared with senexin A (prostate cancer cells [1]; senexin A 10 μM): more potent
- TGF-β1-triggered cell migration (transwell) (prostate cancer cells [2]): significantly inhibited
- phosphorylation of STAT1 at Ser727 ([3]; DU145/PC-3, 24 h, concentration-dependent): suppressed
- phosphorylation of STAT1 at Ser727 in CDK8-overexpressing cells ([3]; pcDNA3 CDK8 HA transfected DU145 and PC-3, concentration-dependent): significantly inhibited
- inhibition of cell migration (A549 cells [4]): potent inhibition
- levels of active form of β-catenin and Snail (DU145 cells): reduced the levels
- cell viability (A549 cells [5]): did not significantly change
